According to US10189845B2, “4,6-substituted-pyrazolo[1,5-a]pyrazines as janus kinase inhibitors” (ARRAY BIOPHARMA INC., priority 2014, dated 2019):
Like-named read-outs stand apart in the source and are kept apart here.

How the values were obtained:
Type in all cases: biochemical
JAK3 = JAK3 (Homo sapiens (Human), UniProt P52333); experiment: JAK3 Inhibition Assay (Example D, Omnia kinase fluorescence peptide substrate assay)
From the text: (§1) The assays described in Examples A, B, C and D for the determination of Tyk2, JAK1, JAK2 and JAK3 kinase activity, respectively, utilized the Omnia® Kinase fluorescence peptide substrate-based technology (Invitrogen). The specific components of the assay mixture are described in Examples A, B, C and D. In these assays, Mg^2+ is chelated upon phosphorylation of the Omnia peptide by the kinase to form a bridge between the chelation-enhanced fluorophore Sox and the phosphate, resulting in an increase in fluorescence emission at 485 nm when excited at […]. The reactions were therefore read at excitation 360 nm and emission was measured at 485 nm every 50 seconds for 45 minutes using a PerkinElmer EnVision Multilabel Plate Reader.
(§2) The final buffer conditions for Tyk2, JAK1, JAK2, and JAK3 assays were as follows: 25 mM HEPES, pH 7.4, 10 mM MgCl2, 0.01% Triton X-100 and 1 mM DTT.
(§3) Two-μL aliquots of these were transferred to a fresh plate for a ten-fold intermediate dilution with assay buffer. Five-μL aliquots of the diluted compounds were then transferred to 20-μL of assay mixtures described in Examples A, B, C and D for a final concentration of DMSO of 2%. […] For each plate, percent of control (POC) values were calculated for each well according to the following equation: […]
(§4) IC50's were estimated from the POC's using a standard 4-parameter logistic model:
(§5) The IC50 is defined as the concentration of inhibitor at which the POC equals 50 for the fitted curve.
(§6) Compounds of Formula I were screened for their ability to inhibit JAK3 using the general enzyme inhibition assay method, in which the assay mixture contained 1 mM ATP, 10 μM Omnia® Y7 peptide (Catalog # IVGN KNZ3071C, Invitrogen Corporation, Carlsbad, Calif.) and 2 nM JAK3 in a total volume of 25 μL. JAK3 was purchased from Invitrogen Corporation, Carlsbad, Calif. (catalog # IVGN PV4080).

JAK1 = JAK1 (Homo sapiens (Human), UniProt P23458); experiment: JAK1 Inhibition Assay (Example B, Omnia kinase fluorescence peptide substrate assay)
Sequence of JAK1 (P23458 whole entry): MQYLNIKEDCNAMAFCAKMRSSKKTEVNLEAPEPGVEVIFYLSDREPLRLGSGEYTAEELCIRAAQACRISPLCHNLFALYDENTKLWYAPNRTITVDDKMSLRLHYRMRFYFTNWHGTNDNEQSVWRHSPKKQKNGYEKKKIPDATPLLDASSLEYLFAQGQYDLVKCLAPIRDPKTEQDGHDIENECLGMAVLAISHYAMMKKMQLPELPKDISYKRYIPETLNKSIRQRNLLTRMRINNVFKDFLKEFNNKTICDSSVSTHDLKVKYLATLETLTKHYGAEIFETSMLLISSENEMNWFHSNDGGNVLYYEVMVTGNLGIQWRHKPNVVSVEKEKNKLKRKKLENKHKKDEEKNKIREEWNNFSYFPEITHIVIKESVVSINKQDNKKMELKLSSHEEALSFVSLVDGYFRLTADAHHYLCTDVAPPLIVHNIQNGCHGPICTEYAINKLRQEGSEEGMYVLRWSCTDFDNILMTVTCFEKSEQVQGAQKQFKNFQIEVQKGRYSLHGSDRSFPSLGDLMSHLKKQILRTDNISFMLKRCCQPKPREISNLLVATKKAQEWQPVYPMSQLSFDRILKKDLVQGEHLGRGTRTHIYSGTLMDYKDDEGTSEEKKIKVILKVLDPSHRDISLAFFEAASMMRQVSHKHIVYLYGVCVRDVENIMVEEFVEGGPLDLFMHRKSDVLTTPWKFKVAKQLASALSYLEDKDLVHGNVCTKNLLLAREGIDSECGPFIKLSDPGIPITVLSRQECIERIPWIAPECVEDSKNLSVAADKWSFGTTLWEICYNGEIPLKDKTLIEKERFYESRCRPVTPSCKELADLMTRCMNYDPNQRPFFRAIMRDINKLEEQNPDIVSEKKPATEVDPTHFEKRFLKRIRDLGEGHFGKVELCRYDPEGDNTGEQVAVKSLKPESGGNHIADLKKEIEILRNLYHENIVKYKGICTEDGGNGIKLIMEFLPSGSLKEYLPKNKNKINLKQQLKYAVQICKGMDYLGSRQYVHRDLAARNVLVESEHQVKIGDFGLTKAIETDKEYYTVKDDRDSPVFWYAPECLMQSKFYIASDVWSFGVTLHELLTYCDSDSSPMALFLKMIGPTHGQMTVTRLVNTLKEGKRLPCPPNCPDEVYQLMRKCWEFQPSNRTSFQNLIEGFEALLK
From the text: as §1, §2, §3, §4, §5
Compounds of Formula I were screened for their ability to inhibit JAK1 using the general enzyme inhibition assay method, in which the assay mixture contained 1 mM ATP, 8 μM Omnia® Y12 peptide (Catalog # IVGN KPZ3121C; Invitrogen Corporation, Carlsbad, Calif.) and 12.5 nM JAK1 in a total volume of 25 μL. JAK1 was purchased from Invitrogen Corporation, Carlsbad, Calif. (catalog # IVGN PV4775).

Human Tyk2 kinase domain = Human Tyk2 kinase domain (Homo sapiens (Human), UniProt P29597); experiment: Tyk2 Inhibition Assay (Example A, Omnia kinase fluorescence peptide substrate assay); conditions: TYK2 Enzyme IC50 1 mM ATP, averaged IC50 ranges
Sequence of Human Tyk2 kinase domain (P29597 886-1187): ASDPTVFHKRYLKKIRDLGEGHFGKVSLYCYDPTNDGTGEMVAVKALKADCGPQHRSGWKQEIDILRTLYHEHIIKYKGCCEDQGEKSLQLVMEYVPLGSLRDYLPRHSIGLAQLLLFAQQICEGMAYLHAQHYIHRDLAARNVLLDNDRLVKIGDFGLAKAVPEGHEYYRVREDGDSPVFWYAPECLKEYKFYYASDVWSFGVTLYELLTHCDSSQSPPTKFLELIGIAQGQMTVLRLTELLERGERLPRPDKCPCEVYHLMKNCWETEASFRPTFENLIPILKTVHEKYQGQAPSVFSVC
From the text: as §1, §2, §3, §4, §5
Compounds of Formula I were screened for their ability to inhibit Tyk2 using the general enzyme inhibition assay method, in which the assay mixture contained 1 mM ATP, 8 μM Omnia Y12 peptide (Catalog # IVGN KPZ3121C; Invitrogen Corporation, Carlsbad, Calif.) and 1 nM Tyk2 in a total volume of 25 μL. Human Tyk2 kinase domain, comprising amino acids 886 to 1187 with 10 additional histidine residues (histidine tag) on the carboxy terminus, was expressed and purified from bacculovirus in-house at Array BioPharma Inc. (Boulder, Colo.). The histidine tag was cleaved after purification using standard conditions.

JAK2 = JAK2 (Homo sapiens (Human), UniProt O60674); experiment: JAK2 Inhibition Assay (Example C, Omnia kinase fluorescence peptide substrate assay); conditions: JAK2 Enzyme IC50 1 mM ATP, averaged IC50 ranges
Sequence of JAK2 (O60674 whole entry): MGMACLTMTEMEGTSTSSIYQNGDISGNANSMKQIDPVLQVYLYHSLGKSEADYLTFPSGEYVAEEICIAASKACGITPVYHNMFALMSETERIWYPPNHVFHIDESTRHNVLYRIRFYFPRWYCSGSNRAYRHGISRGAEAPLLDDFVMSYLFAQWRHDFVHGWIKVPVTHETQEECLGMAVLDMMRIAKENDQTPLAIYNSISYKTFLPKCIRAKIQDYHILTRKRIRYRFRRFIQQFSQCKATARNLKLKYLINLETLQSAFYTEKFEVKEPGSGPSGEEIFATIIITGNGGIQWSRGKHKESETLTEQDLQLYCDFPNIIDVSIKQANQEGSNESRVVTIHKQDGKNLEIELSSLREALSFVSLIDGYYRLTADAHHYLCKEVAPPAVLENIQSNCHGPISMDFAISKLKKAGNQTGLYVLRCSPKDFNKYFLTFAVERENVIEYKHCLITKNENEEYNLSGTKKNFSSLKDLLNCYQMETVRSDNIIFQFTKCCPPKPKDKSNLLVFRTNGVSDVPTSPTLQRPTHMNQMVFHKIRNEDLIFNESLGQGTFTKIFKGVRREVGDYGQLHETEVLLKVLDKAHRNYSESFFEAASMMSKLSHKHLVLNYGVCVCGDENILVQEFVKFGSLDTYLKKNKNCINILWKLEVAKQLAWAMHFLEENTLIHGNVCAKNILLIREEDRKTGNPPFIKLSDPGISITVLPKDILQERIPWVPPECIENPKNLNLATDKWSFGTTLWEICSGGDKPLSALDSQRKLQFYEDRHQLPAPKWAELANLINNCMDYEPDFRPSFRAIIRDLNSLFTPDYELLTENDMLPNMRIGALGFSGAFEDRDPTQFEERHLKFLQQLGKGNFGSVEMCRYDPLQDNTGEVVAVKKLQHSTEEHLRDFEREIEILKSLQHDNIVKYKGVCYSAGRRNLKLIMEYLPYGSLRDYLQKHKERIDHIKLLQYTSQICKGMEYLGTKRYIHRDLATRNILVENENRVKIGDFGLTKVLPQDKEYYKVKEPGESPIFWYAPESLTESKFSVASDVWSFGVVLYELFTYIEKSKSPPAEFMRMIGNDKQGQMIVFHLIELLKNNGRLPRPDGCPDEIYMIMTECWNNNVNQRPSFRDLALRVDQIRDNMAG
From the text: as §1, §2, §3, §4, §5
as §6, with “inhibit JAK2” for “inhibit JAK3”, “and 4” for “and 2”, “nM JAK2” for “nM JAK3”, “μL. JAK2” for “μL. JAK3”, “IVGN PV4288).” for “IVGN PV4080).”

[1] = JAK1 Enzyme IC50 1 mM ATP, 1 mM ATP, averaged IC50 ranges

Sequence of JAK3 (P52333 whole entry): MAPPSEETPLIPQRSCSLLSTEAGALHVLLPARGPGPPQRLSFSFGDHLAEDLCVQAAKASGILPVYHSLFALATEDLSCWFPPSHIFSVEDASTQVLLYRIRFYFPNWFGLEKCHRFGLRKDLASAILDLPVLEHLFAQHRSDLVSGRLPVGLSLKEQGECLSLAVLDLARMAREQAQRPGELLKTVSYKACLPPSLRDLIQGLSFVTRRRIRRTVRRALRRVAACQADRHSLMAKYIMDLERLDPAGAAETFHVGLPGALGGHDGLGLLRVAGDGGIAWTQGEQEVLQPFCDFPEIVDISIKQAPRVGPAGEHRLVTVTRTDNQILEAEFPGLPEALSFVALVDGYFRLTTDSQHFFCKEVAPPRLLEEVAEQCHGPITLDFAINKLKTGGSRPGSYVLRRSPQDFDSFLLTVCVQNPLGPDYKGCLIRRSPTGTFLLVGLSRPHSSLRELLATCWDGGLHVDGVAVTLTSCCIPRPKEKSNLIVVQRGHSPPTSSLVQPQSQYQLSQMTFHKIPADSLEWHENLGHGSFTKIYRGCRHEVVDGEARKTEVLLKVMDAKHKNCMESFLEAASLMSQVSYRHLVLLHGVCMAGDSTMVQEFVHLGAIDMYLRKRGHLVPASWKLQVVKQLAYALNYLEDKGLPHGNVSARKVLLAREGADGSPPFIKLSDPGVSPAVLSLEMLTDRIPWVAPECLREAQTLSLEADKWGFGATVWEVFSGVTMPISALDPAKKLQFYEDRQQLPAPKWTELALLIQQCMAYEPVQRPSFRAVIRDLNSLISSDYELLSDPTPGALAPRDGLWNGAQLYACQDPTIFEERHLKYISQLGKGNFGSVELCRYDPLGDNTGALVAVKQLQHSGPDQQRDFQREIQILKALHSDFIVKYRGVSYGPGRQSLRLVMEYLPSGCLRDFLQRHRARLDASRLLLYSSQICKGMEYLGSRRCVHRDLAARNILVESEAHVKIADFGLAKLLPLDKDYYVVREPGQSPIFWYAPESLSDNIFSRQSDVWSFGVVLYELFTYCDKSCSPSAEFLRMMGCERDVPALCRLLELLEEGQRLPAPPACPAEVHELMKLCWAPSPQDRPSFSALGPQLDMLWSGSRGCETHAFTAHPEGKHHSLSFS

| SMILES | IC50 (JAK3) [nM] | IC50 (JAK1) [nM] | IC50 (Human Tyk2 kinase domain) [nM] | IC50 (JAK1; [1]) [nM] | IC50 (JAK2) [nM] |
| --- | --- | --- | --- | --- | --- |
| CCC(CC)n1cc(-c2nc(-c3cnn(C4CCN(S(C)(=O)=O)CC4)c3)cn3nccc23)cn1 [Example 32, 6-(1-(1-(methylsulfonyl)piperidin-4-yl)-1H-pyrazol-4-yl)-4-(1-(pentan-3-yl)-1H-pyrazol-4-yl)pyrazolo[1,5-a]pyrazine] | 1000 to 10000 | 10 to 100 | – | – | – |
| CC[C@@H](C)n1cc(-c2nc(-c3cnn(C(CO)CO)c3)cn3nccc23)cn1 [Example 85, (R)-2-(4-(4-(1-(sec-butyl)-1H-pyrazol-4-yl)pyrazolo[1,5-a]pyrazin-6-yl)-1H-pyrazol-1-yl)propane-1,3-diol] | 1000 to 10000 | 1000 to 10000 | 100 to 1000 | – | – |
| CCC(CC)n1cc(-c2nc(-c3cnn(C4CCN(C(=O)CN)CC4)c3)cn3nccc23)cn1 [Example 36, 2-amino-1-(4-(4-(4-(1-(pentan-3-yl)-1H-pyrazol-4-yl)pyrazolo[1,5-a]pyrazin-6-yl)-1H-pyrazol-1-yl)piperidin-1-yl)ethanone] | 1000 to 10000 | 100 to 1000 | – | – | – |
| CCC(CC)n1cc(-c2nc(-c3cnn([C@H]4COC[C@@H]4O)c3)cn3nccc23)cn1 (single isomer, unassigned) [Example 160] | – | 1000 to 10000 | – | – | – |
| CCC(CC)n1cc(-c2nc(-c3cnn(C4CCN(C(=O)COC)CC4)c3)cn3nccc23)cn1 [Example 33, 2-methoxy-1-(4-(4-(4-(1-(pentan-3-yl)-1H-pyrazol-4-yl)pyrazolo[1,5-a]pyrazin-6-yl)-1H-pyrazol-1-yl)piperidin-1-yl)ethanone] | 1000 to 10000 | 100 to 1000 | – | – | – |
| CCC1(n2cc(-c3nc(-c4cnn(C)c4)cn4nccc34)cn2)CN(S(=O)(=O)C(F)(F)F)C1 [Example 48, 4-(1-(3-ethyl-1-((trifluoromethyl)sulfonyl)azetidin-3-yl)-1H-pyrazol-4-yl)-6-(1-methyl-1H-pyrazol-4-yl)pyrazolo[1,5-a]pyrazine] | 1000 to 10000 | 10 to 100 | – | – | – |
| CCC(CC)n1cc(-c2nc(-c3cnn(C4CCN(C(=O)NC)CC4)c3)cn3nccc23)cn1 [Example 34, N-methyl-4-(4-(4-(1-(pentan-3-yl)-1H-pyrazol-4-yl)pyrazolo[1,5-a]pyrazin-6-yl)-1H-pyrazol-1-yl)piperidine-1-carboxamide] | 1000 to 10000 | 10 to 100 | 10 to 100 | – | – |
| CCC(CC)n1cc(-c2nc(-c3cnn([C@@H]4COC[C@H]4O)c3)cn3nccc23)cn1 (single isomer, unassigned) [Example 159] | – | 100 to 1000 | – | – | – |
| CCC(CC)n1cc(-c2nc(-c3cnn(C4CN(S(C)(=O)=O)C4)c3)cn3nccc23)cn1 [Example 37, 6-(1-(1-(methylsulfonyl)azetidin-3-yl)-1H-pyrazol-4-yl)-4-(1-(pentan-3-yl)-1H-pyrazol-4-yl)pyrazolo[1,5-a]pyrazine] | 1000 to 10000 | 100 to 1000 | 10 to 100 | – | – |
| CCC(C1CC1)n1cc(-c2nc(-c3cnn(C[C@@H](O)CO)c3)cn3nccc23)cn1 (single isomer, unassigned) [Example 213] | 1000 to 10000 | 100 to 1000 | 10 to 100 | – | – |
| CCC(C1CC1)n1cc(-c2nc(-c3cnn(C[C@@H](O)CO)c3)cn3nccc23)cn1 (single isomer, unassigned) [Example 214] | – | – | – | – | 100 to 1000 |
| CCC(CC)n1cc(-c2nc(-c3cnn([C@H]4C[C@H](C(=O)NCCO)C4)c3)cn3nccc23)cn1 [Example 171, (1r,3r)-N-(2-hydroxyethyl)-3-(4-(4-(1-(pentan-3-yl)-1H-pyrazol-4-yl)pyrazolo[1,5-a]pyrazin-6-yl)-1H-pyrazol-1-yl)cyclobutanecarboxamide] | 1000 to 10000 | – | – | – | – |
| CC[C@H]([C@@H]1CC1(F)F)n1cc(-c2nc(-c3cnn(C[C@@H](O)CO)c3)cn3nccc23)cn1 [Example 204, (R)-3-(4-(4-(1-((R)-1-((S)-2,2-difluorocyclopropyl)propyl)-1H-pyrazol-4-yl)pyrazolo[1,5-a]pyrazin-6-yl)-1H-pyrazol-1-yl)propane-1,2-diol] | 1000 to 10000 | – | – | – | – |
| CC1(C)CCC[C@@H]1n1cc(-c2nc(-c3cnn(C[C@@H](O)CO)c3)cn3nccc23)cn1 [Example 95, (R)-3-(4-(4-(1-((S)-2,2-dimethylcyclopentyl)-1H-pyrazol-4-yl)pyrazolo[1,5-a]pyrazin-6-yl)-1H-pyrazol-1-yl)propane-1,2-diol] | – | – | 1000 to 10000 | 1000 to 10000 | – |
| CC(C)[C@H](C)n1cc(-c2nc(-c3cnn(C[C@@H](O)CO)c3)cn3nccc23)cn1 [Example 80, (R)-3-(4-(4-(1-((S)-3-methylbutan-2-yl)-1H-pyrazol-4-yl)pyrazolo[1,5-a]pyrazin-6-yl)-1H-pyrazol-1-yl)propane-1,2-diol] | 1000 to 10000 | – | – | – | – |

Next, values leading:

| IC50 (JAK3) [nM] | IC50 (JAK1) [nM] | IC50 (Human Tyk2 kinase domain) [nM] | IC50 (JAK1; [1]) [nM] | IC50 (JAK2) [nM] | SMILES |
| --- | --- | --- | --- | --- | --- |
| 1000 to 10000 | – | – | – | – | CCC(CC)n1cc(-c2nc(-c3cnn(CC4CNC(=O)O4)c3)cn3nccc23)cn1 (centres unmarked) [Example 8, 5-((4-(4-(1-(pentan-3-yl)-1H-pyrazol-4-yl)pyrazolo[1,5-a]pyrazin-6-yl)-1H-pyrazol-1-yl)methyl)oxazolidin-2-one] |
| 1000 to 10000 | 100 to 1000 | – | – | – | CCC(CC)n1cc(-c2nc(-c3cnn(CCS(N)(=O)=O)c3)cn3nccc23)cn1 [Example 24, 2-(4-(4-(1-(pentan-3-yl)-1H-pyrazol-4-yl)pyrazolo[1,5-a]pyrazin-6-yl)-1H-pyrazol-1-yl)ethanesulfonamide] |
| 1000 to 10000 | 1000 to 10000 | – | – | – | CCC(CC)n1cc(-c2nc(-c3cnn(C[C@H]4CCCN4)c3)cn3nccc23)cn1 [Example 27, (R)-4-(1-(pentan-3-yl)-1H-pyrazol-4-yl)-6-(1-(pyrrolidin-2-ylmethyl)-1H-pyrazol-4-yl)pyrazolo[1,5-a]pyrazine] |
| 1000 to 10000 | – | – | 100 to 1000 | – | CCC(CC)n1cc(-c2nc(-c3cnn(CC(CO)CO)c3)cn3nccc23)cn1 [Example 61, 2-((4-(4-(1-(pentan-3-yl)-1H-pyrazol-4-yl)pyrazolo[l,5-a]pyrazin-6-yl)-1H-pyrazol-1-yl)methyl)propane-1,3-diol] |
| 1000 to 10000 | 100 to 1000 | 10 to 100 | – | – | CCC(CC)n1cc(-c2nc(-c3cnn(C4CCN(C(C)=O)CC4)c3)cn3nccc23)cn1 [Example 31, 1-(4-(4-(4-(1-(pentan-3-yl)-1H-pyrazol-4-yl)pyrazolo[1,5-a]pyrazin-6-yl)-1H-pyrazol-1-yl)piperidin-1-yl)ethanone] |
| 1000 to 10000 | 100 to 1000 | – | – | – | CCC(CC)n1cc(-c2nc(-c3cnn(C4CN(C(C)=O)C4)c3)cn3nccc23)cn1 [Example 38, 1-(3-(4-(4-(1-(pentan-3-yl)-1H-pyrazol-4-yl)pyrazolo[1,5-a]pyrazin-6-yl)-1H-pyrazol-1-yl)azetidin-1-yl)ethanone] |
| 1000 to 10000 | 1000 to 10000 | – | – | – | CCC(CC)n1cc(-c2nc(-c3cnn(C[C@@H]4CCCN4)c3)cn3nccc23)cn1 [Example 28, (S)-4-(1-(pentan-3-yl)-1H-pyrazol-4-yl)-6-(1-(pyrrolidin-2-ylmethyl)-1H-pyrazol-4-yl)pyrazolo[1,5-a]pyrazine] |
| – | – | – | 100 to 1000 | 10 to 100 | CCC(CC)n1cc(-c2nc(-c3cnn([C@@H](C)CO)c3)cn3nccc23)cn1 [compound 126, (S)-2-(4-(4-(1-(pentan-3-yl)-1H-pyrazol-4-yl)pyrazolo[1,5-a]pyrazin-6-yl)-1H-pyrazol-1-yl)propan-1-ol] |
| 1000 to 10000 | 100 to 1000 | 10 to 100 | – | – | CCC(CC)n1cc(-c2nc(-c3cnn(C4CS(=O)(=O)C4)c3)cn3nccc23)cn1 [Example 13, 3-(4-(4-(1-(pentan-3-yl)-1H-pyrazol-4-yl)pyrazolo[1,5-a]pyrazin-6-yl)-1H-pyrazol-1-yl)thietane 1,1-dioxide] |
